Positions of bridges follow the written chain, without caps; N, C: chain ends. Residues, ends and D or L forms follow the SMILES beside them.

In this test the target is T1, rKv4.2 (Rattus norvegicus, UniProt Q63881).
T1 construct: expressed in transfected cells; host or cells: HEK293T
T1 sequence (Q63881 1-630): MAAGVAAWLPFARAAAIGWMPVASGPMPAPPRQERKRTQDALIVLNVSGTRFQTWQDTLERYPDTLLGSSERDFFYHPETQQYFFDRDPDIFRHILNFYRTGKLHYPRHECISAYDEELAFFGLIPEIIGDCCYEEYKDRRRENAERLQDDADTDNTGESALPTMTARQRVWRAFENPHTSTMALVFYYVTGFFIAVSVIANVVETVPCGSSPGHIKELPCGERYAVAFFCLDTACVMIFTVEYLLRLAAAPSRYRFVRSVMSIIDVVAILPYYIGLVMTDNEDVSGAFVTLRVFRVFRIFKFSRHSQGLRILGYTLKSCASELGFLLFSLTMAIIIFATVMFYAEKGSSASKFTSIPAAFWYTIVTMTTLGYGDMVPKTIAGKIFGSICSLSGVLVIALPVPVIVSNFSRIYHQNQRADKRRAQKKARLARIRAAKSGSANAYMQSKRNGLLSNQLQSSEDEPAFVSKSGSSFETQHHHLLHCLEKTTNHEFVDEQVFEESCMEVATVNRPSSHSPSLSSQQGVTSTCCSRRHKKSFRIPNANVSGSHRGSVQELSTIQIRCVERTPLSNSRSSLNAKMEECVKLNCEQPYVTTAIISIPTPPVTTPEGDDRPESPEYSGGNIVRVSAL
The experiment in a line: cell-based. The note with it: whole-cell patch clamp, HEK293T; mean ± SEM, n = 3-8; SEM; read-out: IC50 on rKv4.2 WT.
Consider `CC(C)C[C@H](NC(=O)[C@H](Cc1ccc(O)cc1)NC(=O)[C@@H](NC(=O)[C@H](CCCCN)NC(=O)[C@@H]1CSSC[C@@H]2NC(=O)[C@H](CCC(=O)O)NC(=O)[C@H](CC(N)=O)NC(=O)[C@H](CCCCN)NC(=O)CNC(=O)[C@@H]3CCCN3C(=O)[C@H]([C@@H](C)O)NC(=O)[C@@H]3CSSC[C@H](NC(=O)[C@H](C)NC(=O)[C@H](Cc4ccc(O)cc4)NC(=O)[C@H](CCCCN)NC(=O)[C@@H]4CCCN4C(=O)[C@H](CSSC[C@H](NC(=O)CN)C(=O)N[C@@H](CCCCN)C(=O)NCC(=O)N[C@@H](Cc4ccccc4)C(=O)NCC(=O)N[C@@H](CC(=O)O)C(=O)N[C@@H](CO)C(=O)N3)NC2=O)C(=O)N[C@@H](CO)C(=O)N[C@@H](CO)C(=O)N[C@@H](CCCCN)C(=O)N[C@@H](Cc2c[nH]cn2)C(=O)N[C@@H](CCCCN)C(=O)N[C@@H](Cc2c[nH]c3ccccc23)C(=O)N1)C(C)C)C(N)=O` [N19K] (H-GCKGFGDSCTPGKNECCPKYACSSKHKWCKVYL-NH2; disulfide 2-17, 9-22, 16-29), for which the IC50 (as a rule, the concentration needed to halve the response being measured) worked out at 0.475 ± 0.103 µM. In the case of `CC(C)C[C@H](NC(=O)[C@H](Cc1ccc(O)cc1)NC(=O)[C@@H](NC(=O)[C@H](CCCCN)NC(=O)[C@@H]1CSSC[C@@H]2NC(=O)[C@H](CCC(=O)O)NC(=O)[C@H](CC(N)=O)NC(=O)[C@H](CCCCN)NC(=O)CNC(=O)[C@@H]3CCCN3C(=O)[C@H]([C@@H](C)O)NC(=O)[C@@H]3CSSC[C@H](NC(=O)[C@H](C)NC(=O)[C@H](Cc4ccc(O)cc4)NC(=O)[C@H](CC(C)C)NC(=O)[C@@H]4CCCN4C(=O)[C@H](CSSC[C@H](NC(=O)CN)C(=O)N[C@@H](CCCCN)C(=O)NCC(=O)N[C@@H](Cc4ccccc4)C(=O)NCC(=O)N[C@@H](CC(=O)O)C(=O)N[C@@H](CO)C(=O)N3)NC2=O)C(=O)N[C@@H](CO)C(=O)N[C@@H](CO)C(=O)N[C@@H](CCCCN)C(=O)N[C@@H](Cc2c[nH]cn2)C(=O)N[C@@H](CCCCN)C(=O)N[C@@H](Cc2c[nH]c3ccccc23)C(=O)N1)C(C)C)C(N)=O` [N19L] (H-GCKGFGDSCTPGKNECCPLYACSSKHKWCKVYL-NH2; disulfide 2-17, 9-22, 16-29), the IC50 came out at 0.042 ± 0.004 µM. For the molecule `CC(C)C[C@H](NC(=O)[C@H](Cc1ccc(O)cc1)NC(=O)[C@@H](NC(=O)[C@H](CCCCN)NC(=O)[C@@H]1CSSC[C@@H]2NC(=O)[C@H](CCC(=O)O)NC(=O)[C@H](CC(N)=O)NC(=O)[C@H](CCCCN)NC(=O)CNC(=O)[C@@H]3CCCN3C(=O)[C@H]([C@@H](C)O)NC(=O)[C@@H]3CSSC[C@H](NC(=O)[C@H](C)NC(=O)[C@H](Cc4ccc(O)cc4)NC(=O)[C@H](CC(N)=O)NC(=O)[C@H](C)NC(=O)[C@H](CSSC[C@H](NC(=O)CN)C(=O)N[C@@H](CCCCN)C(=O)NCC(=O)N[C@@H](Cc4ccccc4)C(=O)NCC(=O)N[C@@H](CC(=O)O)C(=O)N[C@@H](CO)C(=O)N3)NC2=O)C(=O)N[C@@H](CO)C(=O)N[C@@H](CO)C(=O)N[C@@H](CCCCN)C(=O)N[C@@H](Cc2c[nH]cn2)C(=O)N[C@@H](CCCCN)C(=O)N[C@@H](Cc2c[nH]c3ccccc23)C(=O)N1)C(C)C)C(N)=O` [P18A] (H-GCKGFGDSCTPGKNECCANYACSSKHKWCKVYL-NH2; disulfide 2-17, 9-22, 16-29), the IC50 was 0.14 ± 0.043 µM. On to `CC(C)C[C@H](NC(=O)[C@H](Cc1ccc(O)cc1)NC(=O)[C@@H](NC(=O)[C@H](CCCCN)NC(=O)[C@@H]1CSSC[C@@H]2NC(=O)[C@H](CCC(=O)O)NC(=O)[C@H](CC(N)=O)NC(=O)[C@H](CCCCN)NC(=O)CNC(=O)[C@@H]3CCCN3C(=O)[C@H]([C@@H](C)O)NC(=O)[C@@H]3CSSC[C@H](NC(=O)[C@H](C)NC(=O)[C@H](Cc4ccc(O)cc4)NC(=O)[C@H](CC(N)=O)NC(=O)[C@H](CCCCN)NC(=O)[C@H](CSSC[C@H](NC(=O)CN)C(=O)N[C@@H](CCCCN)C(=O)NCC(=O)N[C@@H](Cc4ccccc4)C(=O)NCC(=O)N[C@@H](CC(=O)O)C(=O)N[C@@H](CO)C(=O)N3)NC2=O)C(=O)N[C@@H](CO)C(=O)N[C@@H](CO)C(=O)N[C@@H](CCCCN)C(=O)N[C@@H](Cc2c[nH]cn2)C(=O)N[C@@H](CCCCN)C(=O)N[C@@H](Cc2c[nH]c3ccccc23)C(=O)N1)C(C)C)C(N)=O` [P18K] (H-GCKGFGDSCTPGKNECCKNYACSSKHKWCKVYL-NH2; disulfide 2-17, 9-22, 16-29), for which the IC50 is 0.167 ± 0.117 µM.

For the origin of these results see publication PMC11558128 (Advanced Science, 2024).
